Assay results from PubChem BioAssay AID588588 (Sanford-Burnham Center for Chemical Genomics, 2011).
Where “and” joins values, the source holds several entries; their conditions need not be identical. Equal entries are not always repeated. Calls of active or inactive are those of the source. How the calls were made is not given here.

Biological target: glucose-6-phosphate dehydrogenase-6-phosphogluconolactonase (Plasmodium falciparum 3D7)
Assay: PfG6PD enzyme inhibitors, direct NADPH readout, SAR follow-up, orthogonal assay, biochemical, end-point NADPH detection (AID 588588)
Details: recombinant PfG6PD-6PGL

Row | SMILES | IC50
1 | COc1ccc(/C=C2/Sc3ccc(C(=O)NCCN(C)C)cc3NC2=O)cc1 | > 80 µM (inactive)
2 | CC1Cc2ccccc2N1S(=O)(=O)c1nnc(NC(=O)c2cccc(F)c2)s1 (stereo not drawn) | > 80 µM (inactive)
3 | CCN(CC)CCNC(=O)c1ccc2c(c1)N(Cc1ccccc1Cl)C(=O)c1ccccc1S2 | > 80 µM (inactive)
4 | Cc1ccc(CN2C(=O)c3ccccc3Sc3ccc(C(=O)NCCN(C)C)cc32)cc1 | > 80 µM (inactive)
5 | O=C(Nc1nnc(S(=O)(=O)N2CCCc3ccccc32)s1)c1cccc(F)c1 | > 80 µM (inactive)
6 | Cc1cccc(C(=O)Nc2nnc(S(=O)(=O)N3CCCCCC3)s2)c1 | > 80 µM (inactive)
7 | CCN1CCCC1CNC(=O)c1ccc2c(c1)NC(=O)/C(=C\c1ccc(C)cc1)S2 (stereo not drawn) | > 80 µM (inactive)
8 | CN(C)CCNC(=O)c1ccc2c(c1)NC(=O)/C(=C\c1cccc(Cl)c1)S2 | > 80 µM (inactive)
9 | CCN1CCCC1CNC(=O)c1ccc2c(c1)NC(=O)CO2 (stereo not drawn) | > 80 µM (inactive)
10 | CN(C)CCNC(=O)c1ccc2c(c1)NC(=O)CO2 | > 80 µM (inactive)
11 | Cc1ccccc1C(=O)Nc1nnc(S(=O)(=O)N2CCCCCC2)s1 | > 80 µM (inactive)
12 | O=C(Nc1nnc(S(=O)(=O)N2CCCCCC2)s1)C1CCCCC1 | > 80 µM (inactive)
13 | Cc1cccc(C(=O)Nc2nnc(S(=O)(=O)N3c4ccccc4CC3C)s2)c1 (stereo not drawn) | > 80 µM (inactive)
14 | CCN1CCCC1CNC(=O)c1ccc2c(c1)NC(=O)c1ccccc1O2 (stereo not drawn) | 24.2 µM
15 | CCN1CCCC1CNC(=O)c1ccc2c(c1)NC(=O)c1ccccc1S2 (stereo not drawn) | 6.64 µM and 9.89 µM
16 | CN(C)CCNC(=O)c1ccc2c(c1)NC(=O)c1ccccc1O2 | > 80 µM (inactive)
17 | CCN1CCCC1CNC(=O)c1ccc2c(c1)N(Cc1ccccc1F)C(=O)c1ccccc1S2 (stereo not drawn) | > 80 µM (inactive)
18 | COc1ccccc1C(=O)Nc1nnc(S(=O)(=O)N2CCCCCC2)s1 | > 80 µM (inactive)

Now from value to molecule:

Row | IC50 | SMILES
19 | > 80 µM (inactive) | O=C1Nc2cc(C(=O)NCCN3CCOCC3)ccc2S/C1=C\c1ccccc1F
20 | > 80 µM (inactive) | CCN1CCCC1CNC(=O)c1ccc2c(c1)NC(=O)/C(=C\c1ccccc1F)S2 (stereo not drawn)
21 | > 80 µM (inactive) | CCN1CCCC1CNC(=O)c1ccc2c(c1)NC(=O)/C(=C/c1ccccc1F)S2 (stereo not drawn)
22 | > 80 µM (inactive) | COc1cccc(/C=C2/Sc3ccc(C(=O)NCCN4CCCCCC4)cc3NC2=O)c1
23 | > 80 µM (inactive) | O=C1Nc2cc(C(=O)NCCN3CCCC3)ccc2S/C1=C/c1ccccc1Cl
24 | > 80 µM (inactive) | CCN1CCCC1CNC(=O)c1ccc2c(c1)NC(=O)/C(=C/c1ccccc1C)S2 (stereo not drawn)
25 | > 80 µM (inactive) | CN1CCCC1CCNC(=O)c1ccc2c(c1)NC(=O)/C(=C/c1ccccc1F)S2 (stereo not drawn)
26 | > 80 µM (inactive) | O=C1Nc2cc(C(=O)NCCN3CCCCCC3)ccc2S/C1=C/c1ccccc1F
27 | > 80 µM (inactive) | COc1ccc(/C=C2/Sc3ccc(C(=O)NCCN4CCCC4)cc3NC2=O)cc1
28 | > 80 µM (inactive) | CN1CCN(C(=O)c2ccc3c(c2)NC(=O)/C(=C/c2ccccc2Cl)S3)CC1
